According to patent publication US7427663B2, “Cardio myopeptidin, the production and the use thereof” (Dalian Zhen-Ao Pharmaceutical Co., Ltd., priority 2003, dated 2008):

Key:
[1] = test system: succinic dehydrogenase of primarily cultured myocardial cells; assay: Influence of each peak of cardio myopeptidin on enzyme activity of myocardial cells (MTT method); assay type: cell-based; settings: Adriamycin damage group; normal control 0.344
Source text: Polypeptide content in cardio myopeptidin is 75-90[…], free amino acids content is 6-15[…], and there is a little nucleic acid and microelement.

myocardial cells = assay: Influence of pH and time on activity of cardio myopeptidin (MTT method); assay type: cell-based; settings: Adriamycin damage group, without cardio myopeptidin; normal control 0.691
[2] = test system: myocardial ischemia-reperfusion in rats; assay: Plasma FFA content of rats with ischemia-reperfusion; assay type: in vivo; settings: rat I-R, 2.0 mg/kg
Experimental: (§1) By reference to literature methods, sublingually administer cardio myopeptidin or the reference drug through intravenous injection after rat's coronary artery LAD is ligated for 5 minutes; loosen the ligature after 10 minutes of myocardial ischemia, and reperfusion for 30 min, and simultaneously record II-lead ECG. Blood is taken from the abdominal aorta after the completion of reperfusion, and the heart is perfused and fixed with 6% glutaraldehyde and 0.1 M sodium cacodylate buffer for 2 hours after it is perfused and cleaned with physiological saline water through the aorta. Then the ischemic cardiac muscle from the left frontal wall is picked and cut into 1 mm^3 slices. The slices are immersed in 4% glutaraldehyde and 0.1 M sodium cacodylate buffer to be fixed for the preparation of electron microscope specimens. Slice the specimen of each cardiac muscle after fixation with osmic acid, serial dehydration with acetone, embedment and polymerization with epoxy resin 618, and for each cardiac muscle, cut 4 embedded pieces. Randomly take 20 photos for each group of cardiac muscle of animals with the negative magnification equal to 12000. Observe the change in the ultrastructure, and classify and determine the value according to categories of pathologic changes and severity of damage of mitochondrion, myocardial fiber and other components. […]

[3] = test system: cardiac muscle of ischemia-reperfusion in rats; assay: Damage of myocardial ultrastructure caused by ischemia-reperfusion, electron microscope semi-quantitative assay; assay type: in vivo; settings: rat, 2.0 mg/Kg i.v.
Experimental: as §1

[4] = test system: myocardial oxygen metabolism in dogs; assay: Myocardial oxygen consumption and oxygen uptake in anesthetized dogs; assay type: in vivo; settings: dog, i.v. 2 mg/kg
Source text: Anesthetize dogs with sodium pentobarbital. Conduct endotracheal intubation and artificial respiration, and use an RM-86 polygraph to monitor electrocardiogram and aortic pressure. Open the thoracic cavity from the left side to expose the heart. Intubate a cannula from the apex of the heart to the left ventricle, and record the pressure of the left ventricle and pressure change rate (±dp/dt max). In order to know the change in circulation of the coronary artery and myocardial oxygen metabolism, separate the left circumflex branch of the coronary artery of dogs, use an electromagnetic flowmeter to measure the flow of coronary artery, and calculate the resistance against the coronary artery. Intubate a cannula from the external jugular vein of dogs to the […]. Simultaneously draw the arterial blood and the coronary sinus blood. Use a blood gas analyzer (Model ABL-3, Denmark) to determine blood oxygen content, and calculate myocardial oxygen uptake and myocardial oxygen consumption. Keep the arterial blood pH, CO2 and partial pressure of oxygen of dogs within normal range. The dose of MTP is 2.5 and 10 mg/kg, and the interval between two doses is 30 min. Continuously record various parameters after administration until they return to the control value. Take arterial blood and coronary sinus blood at 2, 5, 10 and 30 minutes after administration. Determine blood gas content, calculate myocardial oxygen uptake and myocardial oxygen consumption, and observe the effect of MTP on myocardial oxygen metabolism.

[5] = test system: myocardial ischemia in cats; assay: Epicardium electrocardiogram of cats with persistent myocardial ischemia, therapeutic administration; assay type: in vivo; settings: cat, 2.0 mg/Kg i.v.
[6] = test system: myocardial infarction in pigs; assay: Myocardial infarction in miniature pigs (coronary ligation); assay type: in vivo; settings: pig, phleboclysis 0.25 mg/kg
Experimental: Anesthetize a healthy, grown male miniature pig with the body weight of 20.9±4.0 kg with 30 mg/kg of 3% sodium pentobarbital through auditory intravenous injection. Connect the tracheal cannula to a SC-3 electro-respirator to perform artificial positive pressure respiration. Open the thoracic cavity from the third rib at the left side to expose the heart. Separate the anterior descending branch of the coronary artery (about ⅓ distant from the apex of heart), and put a silk thread 0^□ beneath it for ligation. Place a multi-point fixed type epicardium electrode with 20 points on the myocardial surface under the ligature. Record the myocardial electrical signals on an RTA-1200 model hot-wave recorder of a RM-6300 model eight-lead polygraph through a ZYS1-I model numerical control epicardium scanner and AB-601G bioelectric amplifier, and 1 mV standard voltage is equal to 1 mm. Under the control of the automatic timer, measure the change in the electrocardiogram at those 20 points. Intubate a cannula from the femoral artery to the abdominal aorta, and connect it to a AP-641G blood pressure amplifier through a TP-400T model pressotransduer to measure the mean blood pressure (MBP). […]

[7] = test system: isolated rat heart with myocardial ischemia-reperfusion; assay: Langendorff isolated rat heart, CPK and LDH of coronary effluent; settings: 1 μg/ml
Experimental: (2) Refer to literature methods to make Langendorff's cardiac hypoxia-reoxygenation damage animal model of isolated rat heart. Conduct Langendorff's perfusion with K—H liquid with high Ca2+ and low K+ and persistent filling of mixed gas. Hook two platinum filaments on the apex of heart and the root of the left cardiac atrium respectively, and record the electrocardiogram. Ligate LAD for 10 min and loosen for 15 min. Conduct perfusion with K—H liquid with corresponding concentrations of cardio myopeptidin from 5 min before ligation to 5 min after loosening for the cardio myopeptidin-treated group. Determine the related indexes of effluent before and after 8 min of ligation and 2 min after loosening respectively. […]

[8] = test system: myocardial ischemia-reperfusion in rats; assay: Cardiac muscle and plasma CPK, LDH, MDA of rats with ischemia-reperfusion, prophylactic administration; assay type: in vivo; settings: rat I-R
Experimental: (1) Refer to literature methods to make myocardial ischemia-reperfusion damage animal model. Ligate the left anterior descending branch of the coronary artery of rats for 10 minutes after MTP or verapamil (Ver) is sublingually administered through intravenous injection for 5 min, perfuse for 30 min. Continuously observe II-lead ECG through a polygraph. Take 2 ml left heart blood after the completion of reperfusion, and take the cardiac muscle at the cardiac apex of the left ventricle after the heart is perfused through the aorta. […] Grouping of the experiment: In the experiment, the rats are divided into seven groups: pseudo-operation control group (P); ischemia-reperfusion group (ischemia-reperfusion, I-R); ischemia-reperfusion+normal saline group (I-R+N.S); ischemia-reperfusion +0.5, 2.0 or 10.0 mg/Kg cardio myopeptidin groups (I-R+MTP) and ischemia-reperfusion +1.0 mg/Kg verapamil group (I-R+Ver), 8-10 animals in each group.

Compound: COc1cccc2c1C(=O)c1c(O)c3c(c(O)c1C2=O)C[C@@](O)(C(=O)CO)C[C@@H]3O[C@H]1C[C@H](N)[C@H](O)[C@H](C)O1 [Adriamycin]
- OD value (MTT method) [1]: 0.272 ± 0.015
- OD value (MTT method) (myocardial cells): 0.274 ± 0.011

Compound: CC(C)NCC(O)COc1cccc2ccccc12 (stereo not drawn) [propranolol]
- FFA (plasma) [2]: 77.1 ± 6.4 μmol/100 ml
- Value of pathological changes ± SD [3]: 0.71 ± 0.84
- myocardial oxygen consumption (MVO2), change value after administration ([4]; 2 min): −31.0 ± 13 %
- myocardial oxygen uptake (O2 ext), change value after administration ([4]; 2 min): −3.00 ± 1.0%
- myocardial oxygen consumption (MVO2), change value after administration ([4]; 5 min): −30.0 ± 13 %
- myocardial oxygen uptake (O2 ext), change value after administration ([4]; 5 min): 3.00 ± 7.0%
- myocardial oxygen consumption (MVO2), change value after administration ([4]; 10 min): −33.0 ± 10 %
- myocardial oxygen uptake (O2 ext), change value after administration ([4]; 10 min): 3.00 ± 8.0%
- myocardial oxygen consumption (MVO2), change value after administration ([4]; 30 min): −32.0 ± 14 %
- myocardial oxygen uptake (O2 ext), change value after administration ([4]; 30 min): 3.00 ± 9.0%
- ΣNST ([5]; ischemia group 11.1): 6.17 ± 1.5 Num.
- ΣΔST ([5]; ischemia group 40.5): 22.8 ± 6.4 mV

Compound: COc1ccc(CCN(C)CCCC(C#N)(c2ccc(OC)c(OC)c2)C(C)C)cc1OC (stereo not drawn) [verapamil]
- Infarction range [6]: 12.5 ± 3.4 %
- Coronary effluent CPK ([7]; during ischemia): 16.2 ± 2.8 U/L
- Coronary effluent LDH ([7]; during ischemia): 13.0 ± 0.62 U/L
- Coronary effluent CPK ([7]; perfusion): 16.0 ± 1.8 U/L
- Coronary effluent LDH ([7]; perfusion): 14.3 ± 0.95 U/L
- Coronary effluent CPK ([7]; prior ischemia): 16.3 ± 2.0 U/L
- Coronary effluent LDH ([7]; prior ischemia): 11.4 ± 0.78 U/L
- Cardiac muscle LDH ([8]; 1.0 mg/Kg): 75.1 ± 23 u/mg pro
- Cardiac muscle MDA ([8]; 1.0 mg/Kg): 66.6 ± 19.8 nmol/100 mg pro
- Plasma LDH ([8]; 1.0 mg/Kg): 46.7 ± 8.8 u/ml
- Plasma MDA ([8]; 1.0 mg/Kg): 24.9 ± 6.6 nmol/mL
- Cardiac muscle CPK ([8]; 1.0 mg/kg): 886 ± 115 u/100 mg pro
- Plasma CPK ([8]; 1.0 mg/kg): 192 ± 60 u/100 ml
